# How the values were obtained:
# AXL = target: T1, AXL (Homo sapiens, UniProt P30530); test: TR-FRET kinase assay, phospho-AXL; type: biochemical; settings: average from multiple lots, n=18; read-out: IC50 against AXL
# T1 construct: recombinant phosphorylated forms of the kinase domains for AXL, MER and TYRO3; purchased ThermoFisher Scientific PV4275
# T1 sequence (P30530 536-807 limits assumed): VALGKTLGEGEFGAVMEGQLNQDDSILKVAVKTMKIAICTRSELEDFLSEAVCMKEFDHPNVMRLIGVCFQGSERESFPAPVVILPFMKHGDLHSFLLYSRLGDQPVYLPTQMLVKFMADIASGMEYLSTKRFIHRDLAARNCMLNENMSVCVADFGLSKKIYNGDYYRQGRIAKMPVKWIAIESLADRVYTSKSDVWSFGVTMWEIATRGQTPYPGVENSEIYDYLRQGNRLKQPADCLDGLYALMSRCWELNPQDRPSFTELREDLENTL
# Protocol: The biochemical potency of Compound 1 to inhibit the enzymatic activity of TAM family members was investigated by TR-FRET assays using recombinant phosphorylated forms of the kinase domains for AXL, MER and TYRO3.
# Phospho-AXL (pAXL), cMER and Tyro3 kinase activities were measured by time-resolved fluorescence energy transfer (TR-FRET) assays. Autophosphorylation of AXL was carried out before the kinase assay by incubating the recombinant AXL protein (ThermoFisher Scientific; #PV4275) in buffer containing 50 mM Tris, pH 7.5, 0.2 mg/mL AXL, 5 mM ATP, 20 mM MgCl2 and 2 mM dithiothreitol (DTT) at room temperature for 1 hour. The kinase assay buffer contained 50 mM HEPES, pH 7.5, 10 mM MgCl2, 1 mM EGTA, 0.01% NP-40 and 2 mM DTT. Enzyme solutions of 0.69 nM phospho-AXL, or 0.088 nM cMER (Carna Biosciences, Kobe, Japan; #08-108) or 0.137 nM TYRO3 (Life Technologies, PR7480A) were prepared in assay buffer. […] The plate was incubated for 30 minutes at room temperature, and homogenous time resolved fluorescence (HTRF) signal was measured on a PheraStar FS plate reader (BMG Labtech, Ortenberg, Germany). Percent inhibition was calculated for each concentration, and half maximal inhibitory concentration (IC50) value was generated from curve fitting with GraphPad Prism software (San Diego, Calif.).
# CTG-2426 tumors = test: PDX model CTG-2426 (myxofibrosarcoma); type: in vivo; settings: athymic nude mice
# Source text: MBT-2 cells were obtained from the Japanese Collection of Research Bioresources Cell Bank and were maintained in DMEM supplemented with 10% FBS. MC38 cells were obtained from the NCI. 4T1 cells were obtained from ATCC and maintained in RPMI media supplemented with 10% FBS. For MBT-2 experiments, 5×10^5 MBT-2 cells were inoculated subcutaneously into the right hind flank of 6- to 8-week-old C3H mice or athymic nude mice (Charles River Laboratories, Wilmington, Mass.). For MC38 studies, 12-week old female C57BL/6 mice were inoculated with brei of MC38 tumors (in-vivo passage 6) into the right hind flank. For 4T1 studies, 7.5×10^5 4 T1 cells were inoculated subcutaneously into the right hind flank of 6- to 8-week-old female BALB/c mice or athymic nude mice (Charles River Laboratories). […] Mice were monitored for tumor growth and overt tolerability over the course of the experiment. […] Tumor volume was calculated using the formula (L×W^2)/2, where L and W refer to the length and width dimensions, respectively. Tumor growth inhibition (TGI) was calculated using the formula (1−(VT/VC))×100, where VT is the tumor volume of the treatment group on the last day of treatment, and VC is the tumor volume of the control group on the last day of treatment. […]
# The activity of Compound 1 in sarcoma PDX models was evaluated as described in Example H for PDX models. […] Three mice per group were analyzed. […]
structure (smiles),measurement,setting,value
"CC(C)C(=O)N1CCC(c2cc(-c3ccc(NC(=O)c4cn(C(C)C)c(=O)n(-c5ccccn5)c4=O)cc3)c3c(N)ncnn23)CC1 [Compound 1, N-(4-(4-Amino-7-(1-isobutyrylpiperidin-4-yl)pyrrolo[1,2-f][1,2,4]triazin-5-yl)phenyl)-1-isopropyl-2,4-dioxo-3-(pyridin-2-yl)-1,2,3,4-tetrahydropyrimidine-5-carboxamide]",IC50,AXL,610 ± 310 pM
same,TGI (%),CTG-2426 tumors,42%
